This passage reports IC50 results from ChEMBL document CHEMBL1150897, “Antioxidant flavonoid glycosides from Daphniphyllum calycinum” (J Nat Prod, 1998).

Each structure is given as a SMILES string. ≈ marks a conversion by molar mass, not a printed value.

For the assay, the system named is Radical scavenging activity. Description: Antioxidant activity assessed as DPPH free radical scavenging activity. It is filed as functional.

With `C[C@@H]1O[C@@H](OC[C@H]2O[C@@H](Oc3c(-c4ccc(O)cc4)oc4cc(O)c(O)c(O)c4c3=O)[C@H](O)[C@@H](O)[C@@H]2O)[C@H](O)[C@H](O)[C@H]1O`, the IC50 stood at 43.2 µg/mL (≈ 70.8 µM).
The same measure for `C[C@H]1O[C@H](O[C@H]2[C@H](Oc3c(-c4ccc(O)cc4)oc4cc(O)cc(O)c4c3=O)O[C@H](CO)[C@@H](O)[C@@H]2O)[C@@H](O)[C@@H](O)[C@@H]1O`: 79.6 µg/mL (≈ 134 µM); for `O=C1O[C@H]([C@@H](O)CO)C(O)=C1O` [ASCORBIC ACID]: 22 µg/mL (≈ 125 µM).
The same measure for `COc1ccc(O)c(C(C)(C)C)c1.COc1ccc(O)cc1C(C)(C)C` [BUTYLATED HYDROXYANISOLE]: 21 µg/mL; for `O=C(O)/C=C/c1ccc(O)c(O)c1` [CAFFEIC ACID]: 12 µg/mL (≈ 66.6 µM).
For the compound `O=C(O)c1cc(O)c(O)c(O)c1` [GALLIC ACID], the IC50 amounted to 5 µg/mL (≈ 29.4 µM).
The value for `CC(Cc1ccc(O)c(O)c1)C(C)Cc1ccc(O)c(O)c1` (configuration not stated) [NORDIHYDROGUAIARETIC ACID] was 12 µg/mL (≈ 39.7 µM).
